Reference: patent US6518423B1, “Benzopiperidine derivatives” (Eisai Co., Ltd., priority 1996, dated 2003)
Counter-ions that a name gives are not always drawn.

Row | melting point | Compound
1 | 265 to 268 °C | COC(=O)c1ccc2c(c1)Nc1nccnc1S2
2 | 231 to 232 °C | Clc1nccn1Cc1ccc2c(c1)Nc1nccnc1S2
3 | 286 to 287 °C | Nc1nccn1Cc1ccc2c(c1)Nc1nccnc1S2
4 | 222 to 224 °C | CCOC(=O)c1ncn(Cc2ccc3c(c2)Nc2nccnc2S3)c1C
5 | 275 to 276 °C | O=C(O)/C=C/c1cn(Cc2ccc3c(c2)Nc2nccnc2S3)cn1
6 | > 298 °C | C/C(=C\c1c(C)ncn1Cc1ccc2c(c1)Nc1nccnc1S2)C(=O)O
7 | 199 to 201 °C | O=C(O)CC1CC2(C1)C1CCCC2CN(Cc2ccc3c(c2)Nc2nccnc2S3)C1 (centres unmarked)
8 | 188 to 192 °C | Cc1ncn(Cc2ccc3c(c2)Nc2nccnc2S3)c1CO
9 | 210 to 212 °C | c1cnc2c(n1)Nc1cc(Cn3cnnn3)ccc1S2
10 | 206 to 208 °C | c1cnc2c(n1)Nc1cc(Cn3ncnn3)ccc1S2
11 | 223 to 225 °C (dec.) | O=C(O)C(F)=C1C2CCCC1CN(Cc1ccc3c(c1)Nc1nccnc1S3)C2
12 | 156 to 188 °C | COC(c1cccnc1)c1ccc2c(c1)Nc1nccnc1S2 (centres unmarked)
13 | 161 to 163 °C | CCc1ccc(C(O)c2ccc3c(c2)Nc2nccnc2S3)cn1 (centres unmarked)
14 | 110 to 115 °C | CC(CC1C2CN(Cc3ccc4c(c3)Nc3nccnc3S4)CC1C(C)CC2C)C(=O)O (centres unmarked)
15 | 164 to 165 °C | CCOP(=O)(Cc1ccc2c(c1)Nc1nccnc1S2)OCC
16 | 181 to 184 °C | CN(Cc1ccc(S(N)(=O)=O)cc1)Cc1ccc2c(c1)Nc1nccnc1S2
17 | 203 to 204 °C | CN(Cc1ccc2c(c1)Nc1nccnc1S2)CC1CCC(C(=O)O)CC1 (centres unmarked)
18 | 220 to 225 °C | O=C(O)CCNC(=O)Cc1ccc2c(c1)Nc1nccnc1S2
19 | 229 to 233 °C | CN(C)c1ncnc2c1ncn2Cc1ccc2c(c1)Nc1nccnc1S2
20 | 272 to 274 °C | N#Cc1ncnc2c1ncn2Cc1ccc2c(c1)Nc1nccnc1S2
21 | 228 to 229 °C | c1cnc2c(n1)Nc1cc(Cn3cnc4c(N5CCCCC5)ncnc43)ccc1S2
22 | 174 to 177 °C | OCCCc1ncnc2c1ncn2Cc1ccc2c(c1)Nc1nccnc1S2
23 | 152 to 154 °C (dec.) | OCC#Cc1ncnc2c1ncn2Cc1ccc2c(c1)Nc1nccnc1S2
24 | 175 to 178 °C | CCOC(=O)CCCCSc1ncnc2ncn(Cc3ccc4c(c3)Nc3nccnc3S4)c12

Row | melting point | Compound
25 | 110 to 120 °C (dec.) | CCCCC(Sc1ncnc2c1ncn2Cc1ccc2c(c1)Nc1nccnc1S2)C(=O)O (centres unmarked)
26 | 226 to 227 °C | N/C(Cc1ccc2c(c1)Nc1nccnc1S2)=N\NS(=O)(=O)c1ccccc1
27 | 275 to 277 °C | CS(=O)(=O)NC1CN=C(Cc2ccc3c(c2)Nc2nccnc2S3)NC1.Cl (centres unmarked)
28 | 266 to 268 °C | CC(C)NC(Cc1ccc2c(c1)Nc1nccnc1S2)=NC#N
29 | 268 to 270 °C | N#CN=C(Cc1ccc2c(c1)Nc1nccnc1S2)NCCO
30 | 213 to 215 °C | N#CN=C(Cc1ccc2c(c1)Nc1nccnc1S2)NCCS(=O)(=O)[O-].[Na+]
31 | 224 to 226 °C | N#CN=CNCc1ccc2c(c1)Nc1nccnc1S2
32 | 208 to 210 °C | N#CN=CN(Cc1ccc2c(c1)Nc1nccnc1S2)Cc1ccccn1
33 | 218 to 219 °C | CN(C)/C=N/Cc1ccc2c(c1)Nc1nccnc1S2
34 | > 265 °C (dec.) | CN/C(=C\[N+](=O)[O-])NCc1ccc2c(c1)Nc1nccnc1S2
35 | 168 to 170 °C | CS(=O)(=O)NCCC1CCN(Cc2ccc3c(c2)Nc2nccnc2S3)CC1
36 | 196 to 199 °C | NS(=O)(=O)NC1CCN(Cc2ccc3c(c2)Nc2nccnc2S3)CC1
37 | 110 to 112 °C | CS(=O)(=O)NCC1=CCCN(Cc2ccc3c(c2)Nc2nccnc2S3)C1
38 | 139 to 142 °C | NC(=O)OC1CCN(Cc2ccc3c(c2)Nc2nccnc2S3)CC1
39 | 219 to 221 °C | OC(c1ccc2c(c1)Nc1nccnc1S2)c1ccccc1CN1CCCCC1 (centres unmarked)
40 | 191 to 192 °C | CN1CCN(Cc2ccc3c(c2)Nc2nccnc2S3)CC1
41 | 176 to 180 °C | CC1(O)CCN(Cc2ccc3c(c2)Nc2nccnc2S3)CC1
42 | 56 to 57 °C | O=S(=O)(NC1CCN(Cc2ccc3c(c2)Nc2nccnc2S3)CC1)N1CCCCC1
43 | 189 to 190 °C | O=S(=O)(NC1CCN(Cc2ccc3c(c2)Nc2nccnc2S3)CC1)N1CCOCC1
44 | 187 to 188 °C | CC(C)(O)CC1CCN(Cc2ccc3c(c2)Nc2nccnc2S3)CC1
45 | 202 to 206 °C | N/C(=N\S(N)(=O)=O)C1CCN(Cc2ccc3c(c2)Nc2nccnc2S3)CC1
46 | 168 to 170 °C | CC(=O)NCC1CCN(Cc2ccc3c(c2)Nc2nccnc2S3)CC1
47 | > 300 °C | CNc1c(N2CCN(Cc3ccc4c(c3)Nc3nccnc3S4)CC2)c(=O)c1=O
48 | 161 to 163 °C | c1cnc2c(n1)Nc1cc(CN3CCCCCC3)ccc1S2

Row | melting point | Compound
49 | 188 to 190 °C | CN(C)S(=O)(=O)CCC1CCN(Cc2ccc3c(c2)Nc2nccnc2S3)CC1
50 | 155 to 160 °C | COc1cc2c(cc1CN1CCC(CCC(C)C(=O)O)CC1)Nc1nccnc1S2 (centres unmarked)
51 | 149 to 151 °C | O=C(O)CC(=O)NC1CCN(Cc2ccc3c(c2)Nc2nccnc2S3)CC1
52 | 192 °C (dec.) | O=C(O)Cc1ccc(C2(O)CCN(Cc3ccc4c(c3)Nc3nccnc3S4)CC2)cc1
53 | 261 to 265 °C (dec.) | O=C([O-])Cc1ccc(OC2CCN(Cc3ccc4c(c3)Nc3nccnc3S4)CC2)cc1.[Na+]
54 | 125 to 127 °C | CC(C(=O)O)=C1CCN(Cc2ccc3c(c2)Nc2nccnc2S3)CC1
55 | 200 to 210 °C | O=C(O)CS(=O)(=O)NC1CCN(Cc2ccc3c(c2)Nc2nccnc2S3)CC1
56 | 115 to 118 °C | CC(CCC1CCN(Cc2cnc3c(c2)Nc2nccnc2S3)CC1)C(=O)O (centres unmarked)
57 | 210 to 215 °C | CS(=O)(=O)N(CC(=O)O)C1CCN(Cc2ccc3c(c2)Nc2nccnc2S3)CC1
58 | 232 to 234 °C | COC(=O)c1ccc(CN2c3ccccc3Nc3nccnc32)cc1
59 | > 275 °C | N#Cc1ccc2c(c1)Nc1nccnc1N2
60 | 195 to 197 °C | COc1ccc2c(c1)N(C)c1nccnc1N2
61 | 215 to 218 °C | CN1c2ccc(CO)cc2Nc2nccnc21
62 | > 275 °C | CN1c2ccc(CNC(=N)N)cc2Nc2nccnc21
63 | 241 to 243 °C | CN1c2ccc(C#CCO)cc2Nc2nccnc21
64 | 245 to 250 °C | NC(=O)c1ccc(NCc2ccc3c(c2)Nc2nccnc2S3)nc1
65 | 160 to 164 °C | COc1ccc(NCc2ccc3c(c2)Nc2nccnc2S3)c(OC)n1
66 | 205 to 208 °C | Cc1ccc(NCc2ccc3c(c2)Nc2nccnc2S3)cn1
67 | 290 to 300 °C | Cc1cc(NCc2ccc3c(c2)Nc2nccnc2S3)c2ccccc2n1
68 | 200 to 203 °C | Clc1ccc(NCc2ccc3c(c2)Nc2nccnc2S3)nc1
69 | 97 to 104 °C (dec.) | NCc1ncnc2c1ncn2Cc1ccc2c(c1)Nc1nccnc1S2 (as salt: oxalate)
70 | 161 to 162 °C | COC(=O)c1ccc(-c2cn(Cc3ccc4c(c3)Nc3nccnc3S4)cn2)cc1 (as salt: trifluoroacetate)
71 | 241 to 242 °C (dec.) | Cl.O[C@@H]1CN(Cc2ccc3c(c2)Nc2nccnc2S3)C[C@H]1O (relative stereo)
